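All cell lines were grown in 96-well plates and treated with compound for 48 hours. GI50 = concentration required for 50% inhibition of growth.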 Calls of active or inactive are those of the source. No stated cut-off is given here; in the data, active = GI50 up to about 1.1 µM and inactive = higher.
Legend:
Test in all cases: NCI anticancer screen, dose series, 48 h
COLO 205 = system: COLO 205
HT-29 = system: HT-29
SN12C = system: SN12C
A549 = system: A549
EKVX = system: EKVX
SF-268 = system: SF-268
UACC-62 = system: UACC-62
SF-295 = system: SF-295
CCRF-CEM = system: CCRF-CEM
LXFL 529 = system: LXFL 529
TK-10 = system: TK-10
SF-539 = system: SF-539
U-251 = system: U-251
SK-OV-3 = system: SK-OV-3
NCI-H226 = system: NCI-H226
MCF7 = system: MCF7
MDA-MB-231 = system: MDA-MB-231
Hs-578T = system: Hs-578T
NCI-H522 = system: NCI-H522
DU-145 = system: DU-145

SMILES | GI50 (COLO 205) | GI50 (HT-29) | GI50 (SN12C) | GI50 (A549) | GI50 (EKVX) | GI50 (SF-268) | GI50 (UACC-62) | GI50 (SF-295) | GI50 (CCRF-CEM) | GI50 (LXFL 529) | GI50 (TK-10) | GI50 (SF-539) | GI50 (U-251) | GI50 (SK-OV-3) | GI50 (NCI-H226) | GI50 (MCF7) | GI50 (MDA-MB-231) | GI50 (Hs-578T) | GI50 (NCI-H522) | GI50 (DU-145)
C/C=C(\NC(=O)C(CCCCN)NC(=O)C(C)NC(=O)C1CSC(C)C(NC(=O)C2CSCC(NC(=O)C(C)NC(=O)C(N)C(C)CC)C(=O)NC(CCCCN)C(=O)NC(Cc3ccccc3)C(=O)NC(CC(C)C)C(=O)N2)C(=O)N2CCCC2C(=O)NCC(=O)N1)C(=O)NCC(=O)NC1CSCC2NC(=O)C(Cc3ccc(O)cc3)NC(=O)C(CSC=CNC2=O)NC(=O)C(CC(N)=O)NC(=O)C(Cc2ccccc2)NC1=O (centres undefined) | > 100 µM (inactive) | > 100 µM (inactive) | > 100 µM (inactive) | > 100 µM (inactive) | 52.2 µM (inactive) | 33.4 µM (inactive) | 37.6 µM (inactive) | > 100 µM (inactive) | > 100 µM (inactive) | > 100 µM (inactive) | > 100 µM (inactive) | > 100 µM (inactive) | > 100 µM (inactive) |  |  |  |  |  |  | 
COc1ccc(NC(=O)CC(=O)N2N=C(c3ccccc3)C(/N=N/c3ccc(S(=O)(=O)CCOS(=O)(=O)O)cc3)C2=O)cc1 (centres undefined) | > 100 µM (inactive) | > 100 µM (inactive) | > 100 µM (inactive) | > 100 µM (inactive) | > 100 µM (inactive) | > 100 µM (inactive) | > 100 µM (inactive) | > 100 µM (inactive) | > 100 µM (inactive) |  | > 100 µM (inactive) | > 100 µM (inactive) | > 100 µM (inactive) | > 100 µM (inactive) | > 100 µM (inactive) | > 100 µM (inactive) | > 100 µM (inactive) | > 100 µM (inactive) | > 100 µM (inactive) | > 100 µM (inactive)
C=C1CCC[C@@H](C)C(O)[C@@H]2OC(=O)C(=C)[C@@H]2C[C@@H](OC(C)=O)[C@@]2(C)CC[C@@H]1O2 (some centres undefined) | 6.37 µM (inactive) | 8.47 µM (inactive) | 8.51 µM (inactive) | 15.8 µM (inactive) | 7.62 µM (inactive) | 7.8 µM (inactive) | 4.53 µM (inactive) | 11.1 µM (inactive) | 1.54 µM (inactive) |  | 7.96 µM (inactive) | 7.98 µM (inactive) | 9.57 µM (inactive) | 10.8 µM (inactive) | 8.49 µM (inactive) | 5.55 µM (inactive) | 8.36 µM (inactive) | 8.67 µM (inactive) | 0.916 µM (active) | 7.66 µM (inactive)
O=C1N/C(=N\N=C\c2ccccc2)C2(CCCCC2)O1 | 93.1 µM (inactive) | 78 µM (inactive) | 95.3 µM (inactive) | 54.5 µM (inactive) | > 100 µM (inactive) | > 100 µM (inactive) | > 100 µM (inactive) | 55.1 µM (inactive) | 17.8 µM (inactive) |  | 74.6 µM (inactive) | > 100 µM (inactive) | 77.8 µM (inactive) | > 100 µM (inactive) | 44.5 µM (inactive) | > 100 µM (inactive) | > 100 µM (inactive) | 46.8 µM (inactive) | > 100 µM (inactive) | > 100 µM (inactive)
CC(C)=CCC[C@](C)(O[C@@H]1O[C@H](CO)[C@@H](O)[C@H](O)[C@H]1O)[C@H]1CC[C@]2(C)[C@@H]1[C@H](O)C[C@@H]1[C@@]3(C)CC[C@H](O)C(C)(C)[C@@H]3[C@@H](O[C@@H]3O[C@H](CO)[C@@H](O)[C@H](O)[C@H]3O)C[C@]12C [GINSENOSIDE RG1] | > 100 µM (inactive) | > 100 µM (inactive) | > 100 µM (inactive) | > 100 µM (inactive) | > 100 µM (inactive) | > 100 µM (inactive) | > 100 µM (inactive) | > 100 µM (inactive) | > 100 µM (inactive) |  | > 100 µM (inactive) | > 100 µM (inactive) | > 100 µM (inactive) | > 100 µM (inactive) | > 100 µM (inactive) | > 100 µM (inactive) | > 100 µM (inactive) | > 100 µM (inactive) | > 100 µM (inactive) | > 100 µM (inactive)

From ChEMBL document CHEMBL1201862, “PubChem BioAssay data set” (2004)
